Tests used:
[1] = target: T1, hSP-A (human SP-A, isolated from BAL of PAP patient) (Homo sapiens, UniProt Q8IWL1+Q8IWL2); experiment: Microscale thermophoresis (MST) binding to hSP-A; conditions: for Kd: hSP-A, apparent KD at protein 9 nM, 25°C, read-out: KD (MST Measurements) ±Kd confidence
T1 construct: Human PAP patient, BAL isolated; from tissue; host or cells: bronchoalveolar lavage fluid of a patient with pulmonary alveolar proteinosis
Description: (§1) Human-isolated and recombinant proteins were labeled using the Monolith Protein Labeling Kit RED-NHS according to the manufacturer’s instructions. This kit reagent reacts with lysine residues present in the sequence of the protein, as the dye carries a reactive NHS-ester group. Briefly, as all the proteins were in a Tris buffer solution, the buffer solution was exchanged to a HEPES-based buffer with the A-Column provided in the kit. Then, 10 µM solution of protein was incubated with a threefold excess of dye in 100 µL for 30 min at room temperature protected from light. The labeled protein was separated from the free dye using the B-Column provided in the kit. The concentration of the labeled protein {c(M) = [A205 − (A650 × 0.19)]/[31 × MWprotein]) and the degree of labeling [DOL = A650/(195.000 M^−1cm^−1 × c(M)] were calculated according to the manufacturer’s instruction, measuring absorption at 205 nm (for the protein) and 650 nm (for the dye).
(§2) Thermophoresis is the phenomenon of movement of particles along a temperature gradient. Solvated molecules move from higher to lower temperature. This movement or depletion of molecules from the heat is quantified by the Soret coefficient ST: Chot/Ccold = exp (−STΔT). The depletion of molecules depends on the interface between molecule and solvent. Therefore, thermophoresis monitors changes in size, charge, and solvation entropy of molecules. In this regard, the thermophoresis or movement of a protein is different from a protein-ligand complex ([35]). Microscale or miniaturized thermophoresis allows to monitor molecular interaction in only a few microliters. For this method, the fluorescently labeled protein is mixed with a decreasing concentration of a ligand in 16 glass capillaries. The initial fluorescence is measured (Fcold), then an infrared (IR) laser beam is switched on and focused on the center of the first capillary, where the temperature gradient is created from the center to the walls of the capillary. At the same time, a dichroic mirror allows fluorescence from the labeled protein to be monitored (Fhot). The rate of fluorescence change is related to the amount of protein-ligand complex form, which depends on the ligand concentration, due to changes in size, charge, or hydration shell of the protein-ligand complex. The dissociation constant KD is calculated from the binding curve derived by plotting the normalized fluorescence (FNorm) at a given time after the start of the thermophoresis against the respective ligand concentration ([33], [34], [36]).
(§3) Samples were measured in a Monolith NT.115, using Premium Capillaries (MO-K025) and Monolith Protein labeling kit RED-NHS (MO-L011) all from NanoTemper Technologies (Munich, Germany). Solutions of a 3X concentrated MST buffer (15 mM Tris, 300 mM NaCl, 0.3% Tween 20, 15 mM CaCl2, pH 7.4), sugars (270 mM) or GAG (30 µM) solution, and protein solution (27 nM) were prepared separately. When a different concentration was used, a threefold concentration of the solution was prepared. Afterward, sugars and GAG solutions were diluted 1:2 with water in a series of 16 steps. For the measurement, 3 µL of each prepared component (3 µL MST buffer, 3 µL GAG solution, and 3 µL labeled protein) was mixed, centrifuged shortly to eliminate precipitates, and loaded into a glass capillary. The final concentrations of the sugars were thus between 90 –and 0.00275 mM or GAGs 10 and 0.000305 µM for GAGs, respectively. The 16 capillaries were loaded in the Monolith NT.115 and measurements were performed with a 40% LED power and medium MST power at 25°C.
(§4) Every set of 16 capillaries was prepared in 3–6 replicates (technical replicates) and measured. The replicate measures of every capillary were plotted against concentration and outliers were excluded, using the MO Affinity Analysis 3 v01 software (NanoTemper Technologies, Munich, Germany). […]

[2] = target: T2, rhSP-D (human recombinant SP-D) (Homo sapiens, UniProt P35247); experiment: Microscale thermophoresis (MST) binding to rhSP-D; conditions: apparent KD at protein 9 nM, 25°C, read-out: KD (MST Measurements) ±Kd confidence
T2 construct: host or cells: CHO cells
T2 sequence (P35247 21-375): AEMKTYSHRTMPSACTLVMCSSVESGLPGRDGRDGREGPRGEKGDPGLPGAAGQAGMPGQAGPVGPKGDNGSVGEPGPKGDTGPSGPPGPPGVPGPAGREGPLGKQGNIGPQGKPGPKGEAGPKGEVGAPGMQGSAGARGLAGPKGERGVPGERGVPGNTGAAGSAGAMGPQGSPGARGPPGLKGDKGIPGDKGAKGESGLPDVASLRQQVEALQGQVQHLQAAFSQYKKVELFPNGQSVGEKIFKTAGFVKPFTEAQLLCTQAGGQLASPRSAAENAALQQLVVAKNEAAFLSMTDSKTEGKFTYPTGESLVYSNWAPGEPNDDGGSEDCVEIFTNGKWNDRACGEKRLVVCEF
Description: as §1, §2, §3, §4

human SP-A [3] = test system: human SP-A; set-up: method as in Haagsman et al.; [18]; conditions: ref Haagsman et al., [18]; cited from earlier work
human SP-A [4] = test system: human SP-A; set-up: method as in Haurum et al.; [41]; conditions: ref Haurum et al., [41], read-out: IC50 mean ±SD; cited from earlier work
human SP-D = test system: human SP-D; set-up: method as in Lu et al.; [19]; conditions: ref Lu et al., [19]; cited from earlier work
recombinant human SP-D = test system: recombinant human SP-D; set-up: method as in van Eijk et al.; [42]; conditions: ref van Eijk et al., [42], read-out: IC50 mean ± SE; cited from earlier work
[5] = test system: recombinant construct containing the N-terminal tagged fusion protein +neck and CRD of human SP-D; set-up: method as in Crouch et al. 2006 [47]; conditions: ref Crouch et al. 2006 [47], read-out: I50 mean ± SE; cited from earlier work

T1 sequence (Q8IWL2 21-248): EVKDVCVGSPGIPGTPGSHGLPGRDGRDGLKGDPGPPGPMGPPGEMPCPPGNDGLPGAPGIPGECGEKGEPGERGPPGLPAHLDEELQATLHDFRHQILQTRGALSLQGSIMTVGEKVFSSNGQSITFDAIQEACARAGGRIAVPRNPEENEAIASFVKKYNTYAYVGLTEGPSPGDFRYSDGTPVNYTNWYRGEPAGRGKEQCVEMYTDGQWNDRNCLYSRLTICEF
T1 sequence (Q8IWL1 21-248): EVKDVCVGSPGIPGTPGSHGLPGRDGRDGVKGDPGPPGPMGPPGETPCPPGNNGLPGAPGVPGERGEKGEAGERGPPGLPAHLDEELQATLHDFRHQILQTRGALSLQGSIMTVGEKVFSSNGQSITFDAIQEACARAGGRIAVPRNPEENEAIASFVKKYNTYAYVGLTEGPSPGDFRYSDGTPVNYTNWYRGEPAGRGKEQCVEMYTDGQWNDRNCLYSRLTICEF

For `OC[C@@H]1OC(O)[C@@H](O)[C@H](O)[C@H]1O` (stereo partly drawn) [Glc, L(−)-glucose], the Kd [1] is given as 1.39 mM, the Kd [2] is given as 0.12 mM and the “Amount of SP-A bound” value (human SP-A [3]) is given as 100%. For the same compound, the IC50 (human SP-A [4]) was 30 ± 1 mM, the IC50 (human SP-D) was 9.6 mM and the IC50 (recombinant human SP-D) was 4 ± 1 mM. The IC50 [5] was 4.1 ± 0.9 mM.
For `CC(=O)N[C@@H]1C(O)O[C@H](CO)[C@@H](O)[C@@H]1O` (stereo partly drawn) [ManNAc, N-acetyl-D-mannosamine monohydrate], the Kd [1] is listed as 0.06 mM, the Kd [2] is listed as 5.39 mM and the IC50 (human SP-A [4]) is listed as 8 ± 1 mM. The IC50 (recombinant human SP-D) was 1.8 ± 0.3 mM and the IC50 [5] was 2.1 ± 0.4 mM.
For `CC(=O)N[C@H]1[C@H]([C@H](O)[C@H](O)CO)OC(O)(C(=O)O)C[C@@H]1O` (stereo partly drawn) [Neu5Ac, N-acetyl-neuraminic acid], the Kd [1] was 0.21 mM and the Kd [2] was 0.27 mM.
For `C[C@H](O)[C@@H](O)[C@@H](O)[C@H](O)C=O` [Fuc, L-fucose], the Kd [1] is given as 4.07 mM, the Kd [2] is given as 0.37 mM and the “Amount of SP-A bound” value (human SP-A [3]) is given as 100%. The IC50 (human SP-A [4]) was 22 ± 1 mM, the IC50 (human SP-D) was 6.5 mM and the IC50 (recombinant human SP-D) was 4.4 ± 0.1 mM.
For `OC[C@H]1OC(O)[C@@H](O)[C@@H](O)[C@@H]1O` (stereo partly drawn) [Man, D(+)-mannose], the Kd [1] is listed as 0.14 mM, the Kd [2] is listed as 0.02 mM and the “Amount of SP-A bound” value (human SP-A [3]) is listed as 95 ± 10%. For the same compound, the IC50 (human SP-A [4]) was 39 ± 3 mM, the IC50 (human SP-D) was 7.5 mM and the IC50 (recombinant human SP-D) was 2.9 ± 0.4 mM. The IC50 [5] was 5.3 ± 0.5 mM.
Compound `O=C[C@H](O)[C@@H](O)[C@H](O)[C@H](O)C(=O)O` [GlcAc, D-glucuronic acid] has a Kd [1] of 0.09 mM and a Kd [2] of 0.005 mM.
For `CC(=O)N[C@@H]1[C@@H](O)[C@H](O)[C@@H](CO)O[C@@H]1O` [GlcNAc, N-acetyl-D-glucosamine], the Kd [1] is listed as 0.16 mM, the Kd [2] is listed as 0.13 mM and the “Amount of SP-A bound” value (human SP-A [3]) is listed as 2%. The IC50 (human SP-D) was 28.5 mM, the IC50 (recombinant human SP-D) was 13.5 ± 4.5 mM and the IC50 [5] was 14 ± 2 mM.
For `CC(=O)N[C@H]1C(O)O[C@H](CO)[C@H](O)[C@@H]1O` (stereo partly drawn) [GalNAc, N-acetyl-D-galactosamine], the Kd [1] is given as 7.27 mM, the Kd [2] is given as 0.39 mM and the “Amount of SP-A bound” value (human SP-A [3]) is given as 7%.
With `O=C[C@H](O)[C@@H](O)[C@@H](O)[C@H](O)CO` [Gal, D(+)-galactose] the “binding of hSP-A to sugar, calcium dependence” value ([1]; MST, 0-10 mM calcium, 0-20 mM EDTA (Fig. 1D, E)) was “only seen in the presence of calcium”, the Kd [1] was 1.94 mM and the Kd [2] was 0.82 mM. For the same compound, the “Amount of SP-A bound” value (human SP-A [3]) was 100%, the IC50 (human SP-D) was 22 mM and the IC50 (recombinant human SP-D) was 7.9 ± 3.8 mM. For the same compound, the IC50 [5] was 10 ± 2 mM.
For `OC[C@H]1O[C@H](O[C@H]2[C@H](O)[C@@H](O)[C@H](O)O[C@@H]2CO)[C@H](O)[C@@H](O)[C@@H]1O` [Maltose, D(+)-maltose], the Kd [1] is given as 0.03 mM, the Kd [2] is given as 0.45 mM and the IC50 (human SP-A [4]) is given as 23 ± 5 mM. The IC50 (human SP-D) was 5.1 mM, the IC50 (recombinant human SP-D) was 4.1 ± 0.9 mM and the IC50 [5] was 2.7 ± 0.4 mM.

From paper PMC11380953, “Multivalent, calcium-independent binding of surfactant protein A and D to sulfated glycosaminoglycans of the alveolar epithelial glycocalyx” (American Journal of Physiology - Lung Cellular and …, 2024)
